Experimental data: US20070093455A1, “10-substituted tetracyclines and methods of use thereof” (priority 2005, published 2007)
In brackets after ≈: the same amount, converted by molar mass.

What was measured:
[1] = system: E. coli translation; experiment: In vitro translation assay for inhibition of bacterial protein synthesis (E. coli S30 Extract System, luciferase); format: biochemical; conditions: 37° C., 1 hour, luciferase luminescence
Description: As a further measure of antibacterial activity, an E. coli S30 Extract System was used to quantitate inhibition of E. coli translation by tetracycline derivatives. This system contained all required components for translation, including a nucleic acid template which, when translated, produces functional luciferase. The reactions were set up with E. coli S30 extract, amino acids, DNA template and selected tetracycline compounds at concentrations of 100, 50, 25, 10, 5, and 1 μg/ml. The reactions were incubated at 37° C. for 1 hour and analyzed by adding the reaction mix to Steady-Glo Luciferase Assay substrate (Promega, Madison Wis.). Luminescence was measured with the Wallac Victor5 plate reader and inhibition is calculated by comparing luciferase activity in experimental reactions versus controls.

[2] = system: S. aureus RN4250; experiment: In vitro MIC assay, S. aureus RN4250; format: cell-based; conditions: Staphylococcus aureus, broth microdilution, 35° C., 18-24 hours
[3] = system: S. aureus RN450; experiment: In vitro MIC assay, S. aureus RN450; format: cell-based; conditions: Staphylococcus aureus, broth microdilution, 35° C., 18-24 hours
[4] = system: H. influenza (ATCC 49247); experiment: In vitro MIC assay, H. influenza (ATCC 49247); format: cell-based; conditions: read-out: MIC H. influenza (ATCC 49247)
[5] = system: S. pneumoniae 157E; experiment: In vitro MIC assay, S. pneumoniae 157E; format: cell-based; conditions: Streptococcus pneumoniae, broth supplemented with lysed horse blood, 35° C., 18-24 hours
[6] = system: S. aureus MRSA5; experiment: In vitro MIC assay, S. aureus MRSA5; format: cell-based; conditions: Staphylococcus aureus, broth microdilution, 35° C., 18-24 hours
[7] = system: P. aeruginosa K1033; experiment: In vitro MIC assay, P. aeruginosa K1033; format: cell-based; conditions: Pseudomonas aeruginosa, broth microdilution, 35° C., 18-24 hours
[8] = system: E. coli MG 1655 DWAK; experiment: In vitro MIC assay, E. coli MG 1655 DWAK; format: cell-based; conditions: Escherichia coli, MG1655DWAK; broth microdilution, 35° C., 18-24 hours
Description: The following assay was used to determine the efficacy of tetracycline compounds against common bacteria. Serial dilutions of compounds were prepared in microdilution plates using a Tecan robotic workstation. Mueller Hinton broth cultures of gram negative and gram positive strains were grown or adjusted to match the turbidity of a 0.5 McFarland standard. 1:200 dilutions were made in appropriate broth (cation supplemented Mueller Hinton broth or Haemophilus test medium) to allow a final inoculum of 1×10^5 cfu. Lysed horse blood was used to supplement broth for testing S. pneumoniae. The plates were incubated at 35° C. in ambient air for 18-24 hours, read spectrophotometrically, and checked manually for evidence of bacterial growth. Serial dilutions of compounds were also added to Brucella agar supplemented with laked sheep blood for P. acnes tests. A standard inoculum was transferred to the plate using a stainless steel replicator. After 48 hours of anaerobic incubation at 35° C. plates were examined. The MIC was defined as the lowest concentration of the tetracycline compound that inhibits growth. Table 3 gives the MIC (μg/mL) of selected substituted tetracycline compounds against a variety of gram positive and gram negative bacteria.

[9] = system: Mouse 3T3 fibroblast cells; experiment: Phototoxicity assay (neutral red); format: cell-based; conditions: 3T3 cells; for phototoxicity at 30 μM, incubated in the UV light: UV light 1.6-1.8 mW/cm^2, 30 μM
Description: Mouse 3T3 fibroblast cells were harvested and plated at a concentration of 1×10^5 cells/mL. Drug dilutions were made in HBSS and added to the plates. Duplicate plates were then incubated in the dark (for controls), or under UV light (meter reading of 1.6-1.8 mW/cm^2) for 50 minutes. Cells were then washed with HBSS, fresh medium was added, and plates were then incubated overnight. The following day, neutral red was added as an indicator of cell viability and plates were incubated for an additional 3 hours. Cells were then washed with HBSS and a solution of 50% EtOH, 10% glacial acetic acid is added. After a 20 minute incubation period, plates absorbance at 535 nm were read using a Wallac Victor 5 spectrophotometer. The phototoxicity in light-treated and control cultures was then compared.

[10] = system: E. coli (ATCC 25922); experiment: In vitro MIC assay, E. coli (ATCC 25922); format: cell-based; conditions: Escherichia coli, ATCC25922; broth microdilution, 35° C., 18-24 hours
[11] = system: COS-1 or CHO cell; experiment: Mammalian cell cytotoxicity assay (Resazurin; Alamar Blue); format: cell-based; conditions: COS-1 or CHO cells, 24 hour incubation
Description: To predict the in vivo risks associated with the compounds of the invention, a soluble, non-toxic redox dye (“Resazurin”; Alamar Blue) was used to assess a compound's effect on cellular metabolism. COS-1 or CHO cell suspensions were prepared, seeded into 96-well black-walled microtiter plates, and incubated overnight at 37° C., in 5% CO2 and approximately 95% humidity. On the next day, serial dilutions of test drug were prepared and transferred to cell plates. Following a 24 hour incubation period, the media/drug was aspirated, and 50 μL of resazurin was added. After a 2 hour incubation, fluorescence measurements were taken (excitation […], emission 590 nm) and toxic effects in treated versus control cells were compared based on the degree of fluorescence in each well.

| SMILES | IC20 [1] [µM] | IC50 [1] [µM] | MIC [2] [µg/mL] | MIC [3] [µg/mL] | MIC [4] [µg/mL] | MIC [5] [µg/mL] | MIC [6] [µg/mL] | MIC [7] [µg/mL] | MIC [8] [µg/mL] | phototoxicity at 150 μM, incubated in the dark [9] | MIC [10] [µg/mL] | cytotoxicity at 75 μg/mL [11] | phototoxicity at 30 μM, incubated in the UV light [9] |
| --- | --- | --- | --- | --- | --- | --- | --- | --- | --- | --- | --- | --- | --- |
| CN(C)c1cc2cc(-c3ccc(N)cc3)oc2c2c1CC1CC3[C@H](N(C)C)C(O)=C(C(N)=O)C(=O)[C@@]3(O)C(O)=C1C2=O (stereo partly drawn) [Q] | < 100 | < 100 | 0 to 21 | 0 to 21 | 44 to 64 (≈ 76.8 to 112 µM) | 22 to 43 (≈ 38.4 to 75.1 µM) | 0 to 21 | – | – | – | – | – | – |
| NC(=O)C1=C(O)CC2CC3Cc4ccccc4C(=O)C3=C(O)[C@]2(O)C1=O (stereo partly drawn) [F] | < 100 | < 100 | 0 to 21 | 0 to 21 | 0 to 21 | 22 to 43 (≈ 61.9 to 121 µM) | 0 to 21 | 0 to 21 | 0 to 21 | not to be appreciably phototoxic | 44 to 64 (≈ 124 to 180 µM) | – | – |
| CN(C)c1cccc2c1CC1CC3CC(O)=C(C(N)=O)C(=O)[C@@]3(O)C(O)=C1C2=O (stereo partly drawn) [E] | > 100 | < 100 | 0 to 21 | 0 to 21 | 22 to 43 (≈ 55.2 to 108 µM) | 44 to 64 (≈ 110 to 161 µM) | 0 to 21 | 0 to 21 | 0 to 21 | not to be appreciably phototoxic | 44 to 64 (≈ 110 to 161 µM) | – | – |
| CC(=O)c1cc2c(c(N(C)C)c1)CC1CC3[C@H](N(C)C)C(O)=C(C(N)=O)C(=O)[C@@]3(O)C(O)=C1C2=O (stereo partly drawn) [H] | < 100 | < 100 | 44 to 64 (≈ 91 to 132 µM) | 44 to 64 (≈ 91 to 132 µM) | 44 to 64 (≈ 91 to 132 µM) | 44 to 64 (≈ 91 to 132 µM) | 44 to 64 (≈ 91 to 132 µM) | 22 to 43 (≈ 45.5 to 88.9 µM) | 22 to 43 (≈ 45.5 to 88.9 µM) | not to be appreciably phototoxic | 44 to 64 (≈ 91 to 132 µM) | minimal cytotoxicity | – |
| CN(C)c1cc(C(=O)O)cc2c1CC1CC3[C@H](N(C)C)C(O)=C(C(N)=O)C(=O)[C@@]3(O)C(O)=C1C2=O (stereo partly drawn) [D] | < 100 | < 100 | 44 to 64 (≈ 90.6 to 132 µM) | 44 to 64 (≈ 90.6 to 132 µM) | 44 to 64 (≈ 90.6 to 132 µM) | 44 to 64 (≈ 90.6 to 132 µM) | 44 to 64 (≈ 90.6 to 132 µM) | 44 to 64 (≈ 90.6 to 132 µM) | 44 to 64 (≈ 90.6 to 132 µM) | not to be appreciably phototoxic | 44 to 64 (≈ 90.6 to 132 µM) | minimal cytotoxicity | minimally phototoxic |
| CC(=O)c1cccc2c1C(=O)C1=C(O)[C@]3(O)C(=O)C(C(N)=O)=C(O)[C@@H](N(C)C)C3CC1C2 (stereo partly drawn) [N] | < 100 | < 100 | 44 to 64 (≈ 99.9 to 145 µM) | 22 to 43 (≈ 49.9 to 97.6 µM) | 44 to 64 (≈ 99.9 to 145 µM) | 44 to 64 (≈ 99.9 to 145 µM) | 44 to 64 (≈ 99.9 to 145 µM) | 0 to 21 | 0 to 21 | – | 44 to 64 (≈ 99.9 to 145 µM) | minimal cytotoxicity | – |
| CC1CCN(c2cccc3c2C(=O)C2=C(O)[C@]4(O)C(=O)C(C(N)=O)=C(O)[C@@H](N(C)C)C4CC2C3)CC1 (stereo partly drawn) [M] | < 100 | < 100 | 44 to 64 (≈ 88.8 to 129 µM) | 44 to 64 (≈ 88.8 to 129 µM) | 0 to 21 | 22 to 43 (≈ 44.4 to 86.8 µM) | 44 to 64 (≈ 88.8 to 129 µM) | 0 to 21 | 0 to 21 | not to be appreciably phototoxic | 44 to 64 (≈ 88.8 to 129 µM) | minimal cytotoxicity | minimally phototoxic |
| CN(C)[C@@H]1C(O)=C(C(N)=O)C(=O)[C@@]2(O)C(O)=C3C(=O)c4c(cccc4OS(=O)(=O)C(F)(F)F)CC3CC12 (stereo partly drawn) [O] | < 100 | < 100 | 22 to 43 (≈ 40.3 to 78.7 µM) | 22 to 43 (≈ 40.3 to 78.7 µM) | 44 to 64 (≈ 80.5 to 117 µM) | 44 to 64 (≈ 80.5 to 117 µM) | 22 to 43 (≈ 40.3 to 78.7 µM) | 0 to 21 | 0 to 21 | – | 44 to 64 (≈ 80.5 to 117 µM) | – | – |
| CN(C)c1cc(C(=O)O)cc2c1CC1CC3[C@@H](N(C)C)C(O)=C(C(N)=O)C(=O)[C@@]3(O)C(O)=C1C2=O (stereo partly drawn) [G] | < 100 | < 100 | 44 to 64 (≈ 90.6 to 132 µM) | 44 to 64 (≈ 90.6 to 132 µM) | 44 to 64 (≈ 90.6 to 132 µM) | 44 to 64 (≈ 90.6 to 132 µM) | 44 to 64 (≈ 90.6 to 132 µM) | 44 to 64 (≈ 90.6 to 132 µM) | 44 to 64 (≈ 90.6 to 132 µM) | not to be appreciably phototoxic | 44 to 64 (≈ 90.6 to 132 µM) | minimal cytotoxicity | minimally phototoxic |
| CN(C)c1cc2c(c3c1CC1CC4[C@H](N(C)C)C(O)=C(C(N)=O)C(=O)[C@@]4(O)C(O)=C1C3=O)OC(=O)N(CC(C)(C)C)C2 (stereo partly drawn) [P] | – | – | 44 to 64 (≈ 75.5 to 110 µM) | 44 to 64 (≈ 75.5 to 110 µM) | 44 to 64 (≈ 75.5 to 110 µM) | 44 to 64 (≈ 75.5 to 110 µM) | 44 to 64 (≈ 75.5 to 110 µM) | – | – | – | – | minimal cytotoxicity | minimally phototoxic |
| CN(C)c1cccc2c1CC1CC3[C@@H](N(C)C)C(O)=C(C(N)=O)C(=O)[C@@]3(O)C(O)=C1C2=O (stereo partly drawn) [C] | > 100 | > 100 | 0 to 21 | 0 to 21 | 22 to 43 (≈ 49.8 to 97.4 µM) | 0 to 21 | 44 to 64 (≈ 99.7 to 145 µM) | 0 to 21 | 0 to 21 | not to be appreciably phototoxic | 44 to 64 (≈ 99.7 to 145 µM) | minimal cytotoxicity | – |
